Some test systems named below: HCC 2998; Malme-3M; NCI/ADR-RES; HCT-15; UACC-257; EKVX; ACHN; SR; OVCAR-3; MDA-N; SF-539; M14; SF-268; MDA-MB-231; NCI-H23; MDA-MB-435; OVCAR-4; TK-10; CAKI-1; HL-60.
Holding throughout (assay): DTP human tumour cell line panel, 48 h

What is called GI50 is the concentration giving 50% growth inhibition.

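A five-concentration, 48-hour dose response in 96-well plates underlies each endpoint, interpolated linearly between surrounding concentrations. GI50 marks 50% less growth.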 Active and inactive are the calls of the source. Cut-off read from the data, not from the text of the source: active = GI50 up to about 1.1 µM and inactive = higher.

As for `Cn1c(=O)cc(Nc2ccc(N)cc2)[nH]c1=O`, the GI50 in the experiment with HCC 2998 was > 100 µM (inactive); in the experiment with Malme-3M it was > 100 µM (inactive); with NCI/ADR-RES, > 100 µM (inactive); in the experiment with HCT-15 it was above 100 µM; with UACC-257, > 100 µM (inactive); with EKVX, > 100 µM (inactive). Further, the GI50 in the experiment on ACHN, with SR, with OVCAR-3, in the experiment on MDA-N, with SF-539 and in the experiment with M14 was > 100 µM (inactive) in each case. For the same compound, the GI50 with SF-268, in the experiment with MDA-MB-231, in the experiment on NCI-H23, in the experiment on MDA-MB-435, in the experiment with OVCAR-4 and in the experiment on TK-10 was > 100 µM (inactive) throughout. Further, the GI50 in the experiment with CAKI-1 was > 100 µM (inactive).
For the compound `CC(=O)O[C@H]1CC[C@@]2(C)C(=CC[C@@H]3[C@@H]2CC[C@](C)(c2nnc(C)o2)[C@H]3CC#N)C1`, the GI50 with Malme-3M is > 100 µM (inactive); in the experiment with NCI/ADR-RES it was > 100 µM (inactive); in the experiment on HCT-15 it was above 100 µM; in the experiment with UACC-257, > 100 µM (inactive); in the experiment on EKVX it was > 100 µM (inactive); in the experiment with ACHN, > 100 µM (inactive). Also, the GI50 with HL-60 is 61.9 µM (inactive); in the experiment on SR, > 100 µM (inactive); in the experiment on OVCAR-3, > 100 µM (inactive); in the experiment with MDA-N, > 100 µM (inactive); in the experiment on SF-539, > 100 µM (inactive); with M14, > 100 µM (inactive). Further, the GI50 in the experiment with SF-268, with MDA-MB-231, in the experiment with NCI-H23, in the experiment with MDA-MB-435, in the experiment on OVCAR-4 and in the experiment with TK-10 was > 100 µM (inactive) each time. Also, in the experiment on CAKI-1, the GI50 is > 100 µM (inactive).
Take `Nc1ccc(-c2nnc(-c3c(Cl)c(Cl)c(Cl)c(Cl)c3-c3nc4cc(C(=O)c5ccccc5)ccc4[nH]3)o2)cc1`: the GI50 with Malme-3M was 22.8 µM (inactive); in the experiment with NCI/ADR-RES, 16 µM (inactive); with HCT-15, 15.7 µM; with UACC-257, 48.4 µM (inactive); in the experiment on EKVX, 28.6 µM (inactive); in the experiment on ACHN it was 41.7 µM (inactive). In addition, the GI50 in the experiment with SR is 5.16 µM (inactive); in the experiment with OVCAR-3 it was 21 µM (inactive); in the experiment with MDA-N, 4.68 µM (inactive); with SF-539, 14.2 µM (inactive); with M14 it was 16.6 µM (inactive); with SF-268 it was 28.5 µM (inactive). The GI50 in the experiment on MDA-MB-231 is 19.3 µM (inactive); with NCI-H23, 33 µM (inactive); in the experiment on MDA-MB-435, 4.95 µM (inactive); in the experiment with OVCAR-4, 24.5 µM (inactive); with TK-10 it was 27.5 µM (inactive); in the experiment with CAKI-1, 48.1 µM (inactive).
Consider `CC(C)(C)N1NC1C1NN1C(C)(C)C` (stereo not given), for which the GI50 is > 100 µM (inactive) with HCC 2998; > 100 µM (inactive) in the experiment on Malme-3M; > 100 µM (inactive) in the experiment on NCI/ADR-RES; above 100 µM in the experiment on HCT-15; > 100 µM (inactive) in the experiment with UACC-257; > 100 µM (inactive) in the experiment on EKVX. The GI50 with ACHN, in the experiment with SR, in the experiment with OVCAR-3, in the experiment on MDA-N, in the experiment with SF-539 and with M14 was > 100 µM (inactive) throughout. Further, the GI50 in the experiment on SF-268, in the experiment with MDA-MB-231, in the experiment on NCI-H23, with MDA-MB-435, in the experiment on OVCAR-4 and in the experiment on TK-10 was > 100 µM (inactive) throughout. The GI50 with CAKI-1 is > 100 µM (inactive).
Turning to `Nc1nc2c(=O)c3ccccc3sc2s1`, the GI50 is 25.9 µM (inactive) with NCI/ADR-RES; 34.5 µM with HCT-15; 54.2 µM (inactive) in the experiment with UACC-257; 23 µM (inactive) with EKVX; 45.5 µM (inactive) with ACHN; 28.9 µM (inactive) with HL-60. In addition, the GI50 was 48.3 µM (inactive) in the experiment on SR; 56.2 µM (inactive) with OVCAR-3; > 100 µM (inactive) in the experiment on MDA-N; 17.3 µM (inactive) in the experiment on SF-539; > 100 µM (inactive) in the experiment on M14; 40.6 µM (inactive) in the experiment with SF-268. The GI50 in the experiment with MDA-MB-231 was 31.9 µM (inactive); with NCI-H23, 48.5 µM (inactive); in the experiment on MDA-MB-435 it was > 100 µM (inactive); in the experiment with TK-10, 41.5 µM (inactive); with CAKI-1, 20.4 µM (inactive).
With `Cn1cc[n+](-c2cc(=O)n(C)c(=O)[n-]2)c1`, the GI50 with Malme-3M was > 100 µM (inactive); with NCI/ADR-RES, > 100 µM (inactive); in the experiment with HCT-15, above 100 µM; in the experiment with UACC-257 it was > 100 µM (inactive); in the experiment on EKVX, 49.9 µM (inactive); in the experiment with ACHN it was > 100 µM (inactive). Besides, the GI50 in the experiment on HL-60 was > 100 µM (inactive); with SR it was 27.9 µM (inactive); in the experiment on OVCAR-3 it was 80 µM (inactive); with MDA-N, > 100 µM (inactive); with SF-539 it was > 100 µM (inactive); with M14, > 100 µM (inactive). The GI50 in the experiment with SF-268 was > 100 µM (inactive); with MDA-MB-231 it was > 100 µM (inactive); with NCI-H23, > 100 µM (inactive); in the experiment on MDA-MB-435, > 100 µM (inactive); in the experiment on OVCAR-4 it was 94.4 µM (inactive); in the experiment on TK-10 it was 31.8 µM (inactive).
Take `COc1ccc(NC(=O)N(C)CC2(O)CCC(C(C)(C)C)CC2)cc1` (stereo not given): the GI50 is 24.8 µM (inactive) with Malme-3M; 54.5 µM (inactive) with NCI/ADR-RES; 61.7 µM in the experiment with HCT-15; 33.9 µM (inactive) in the experiment with UACC-257; 56.4 µM (inactive) with EKVX; > 100 µM (inactive) in the experiment on ACHN. The GI50 was 63.5 µM (inactive) in the experiment with HL-60; > 100 µM (inactive) in the experiment on SR; 23 µM (inactive) in the experiment on OVCAR-3; 55.1 µM (inactive) in the experiment with MDA-N; > 100 µM (inactive) with SF-539; > 100 µM (inactive) in the experiment with M14. Also, the GI50 in the experiment with SF-268 was > 100 µM (inactive); with MDA-MB-231, 41.8 µM (inactive); in the experiment on NCI-H23, 99.3 µM (inactive); in the experiment on MDA-MB-435, 57.1 µM (inactive); in the experiment on OVCAR-4, 66.2 µM (inactive); in the experiment with TK-10 it was 37 µM (inactive). In addition, the GI50 in the experiment on CAKI-1 was < 0.01 µM (active).
Consider `COc1ccc(/N=N/c2c(C)c(C#N)c(=S)n(C3OC(CO)C(O)C(O)C3O)c2C)cc1` (stereo not given), for which the GI50 in the experiment on NCI/ADR-RES was > 100 µM (inactive); with HCT-15, 53.1 µM; with UACC-257, 71.9 µM (inactive); in the experiment on ACHN, 36.4 µM (inactive); with HL-60, 38.3 µM (inactive); in the experiment with SR it was 23.4 µM (inactive). Moreover, the GI50 was 34.4 µM (inactive) in the experiment on OVCAR-3; 30.6 µM (inactive) in the experiment on MDA-N; 48.3 µM (inactive) in the experiment with SF-539; 26.7 µM (inactive) in the experiment with M14; 45.9 µM (inactive) with SF-268; 62.8 µM (inactive) with MDA-MB-231. Also, the GI50 with NCI-H23 was 35.6 µM (inactive); in the experiment with MDA-MB-435, 38.8 µM (inactive); with OVCAR-4, 57.4 µM (inactive); in the experiment with TK-10, 82 µM (inactive); in the experiment on CAKI-1 it was 56.2 µM (inactive).
As for `COC(=O)C/N=C1\NC(=S)N(Cc2ccc(OC)cc2)C12CCCC2`, the GI50 was > 100 µM (inactive) in the experiment on HCC 2998; > 100 µM (inactive) with Malme-3M; > 100 µM (inactive) with NCI/ADR-RES; above 100 µM in the experiment on HCT-15; > 100 µM (inactive) in the experiment on UACC-257; > 100 µM (inactive) with EKVX. For the same compound, the GI50 in the experiment with ACHN, with SR, in the experiment on OVCAR-3, in the experiment with MDA-N, in the experiment with SF-539 and in the experiment with M14 was > 100 µM (inactive) in each case. For the same compound, the GI50 in the experiment on SF-268, in the experiment on MDA-MB-231, with NCI-H23, in the experiment on MDA-MB-435, with OVCAR-4 and in the experiment with CAKI-1 was > 100 µM (inactive) each time.
On to `CSC1=N/C(=C\c2ccco2)C(=O)N1CN1CCCCC1`, for which the GI50 was > 100 µM (inactive) in the experiment on Malme-3M; > 100 µM (inactive) in the experiment with NCI/ADR-RES; 38.4 µM with HCT-15; > 100 µM (inactive) with EKVX; 69.5 µM (inactive) with ACHN; > 100 µM (inactive) with SR. The GI50 in the experiment on OVCAR-3 is > 100 µM (inactive); in the experiment on MDA-N, > 100 µM (inactive); with M14 it was 85.3 µM (inactive); with SF-268 it was 92.3 µM (inactive); in the experiment with MDA-MB-231 it was > 100 µM (inactive); with NCI-H23 it was > 100 µM (inactive). Further, the GI50 in the experiment on MDA-MB-435 and in the experiment with TK-10 was > 100 µM (inactive) each time.
Turning to `C#CCOC(=O)c1ccccc1OC(C)=O`, the GI50 with NCI/ADR-RES is > 100 µM (inactive); with HCT-15, above 100 µM; with UACC-257, > 100 µM (inactive); with EKVX, > 100 µM (inactive); in the experiment on ACHN, > 100 µM (inactive); with HL-60, > 100 µM (inactive). The GI50 with SR, in the experiment with MDA-N, in the experiment with SF-539, in the experiment on M14, in the experiment on SF-268 and in the experiment on MDA-MB-231 was > 100 µM (inactive) throughout. Also, the GI50 in the experiment on NCI-H23, with MDA-MB-435, with OVCAR-4, with TK-10 and with CAKI-1 was > 100 µM (inactive) each time.

These data come from ChEMBL document CHEMBL1201862, “PubChem BioAssay data set” (2004).
